ChEMBL document CHEMBL3098040, “Design and Discovery of 2-Arylquinazolin-4-ones as Potent and Selective Inhibitors of Tankyrases” (ACS Med Chem Lett, 2013)

Columns and labels:
[1] = target: Inosine-5'-monophosphate dehydrogenase 2 (Homo sapiens, UniProt P12268); assay: Inhibition of human recombinant IMPDH2 by spectrophotometry
[2] = target: Poly [ADP-ribose] polymerase 1 (Homo sapiens, UniProt P09874); assay: Inhibition of PARP1 (unknown origin) after 1 hr by spectrophotometry
[3] = target: T1, Poly [ADP-ribose] polymerase tankyrase-2 (Homo sapiens, UniProt Q9H2K2); assay: Inhibition of human tankyrase2 after 2 hrs by spectrophotometry
T1 sequence (Q9H2K2 whole entry): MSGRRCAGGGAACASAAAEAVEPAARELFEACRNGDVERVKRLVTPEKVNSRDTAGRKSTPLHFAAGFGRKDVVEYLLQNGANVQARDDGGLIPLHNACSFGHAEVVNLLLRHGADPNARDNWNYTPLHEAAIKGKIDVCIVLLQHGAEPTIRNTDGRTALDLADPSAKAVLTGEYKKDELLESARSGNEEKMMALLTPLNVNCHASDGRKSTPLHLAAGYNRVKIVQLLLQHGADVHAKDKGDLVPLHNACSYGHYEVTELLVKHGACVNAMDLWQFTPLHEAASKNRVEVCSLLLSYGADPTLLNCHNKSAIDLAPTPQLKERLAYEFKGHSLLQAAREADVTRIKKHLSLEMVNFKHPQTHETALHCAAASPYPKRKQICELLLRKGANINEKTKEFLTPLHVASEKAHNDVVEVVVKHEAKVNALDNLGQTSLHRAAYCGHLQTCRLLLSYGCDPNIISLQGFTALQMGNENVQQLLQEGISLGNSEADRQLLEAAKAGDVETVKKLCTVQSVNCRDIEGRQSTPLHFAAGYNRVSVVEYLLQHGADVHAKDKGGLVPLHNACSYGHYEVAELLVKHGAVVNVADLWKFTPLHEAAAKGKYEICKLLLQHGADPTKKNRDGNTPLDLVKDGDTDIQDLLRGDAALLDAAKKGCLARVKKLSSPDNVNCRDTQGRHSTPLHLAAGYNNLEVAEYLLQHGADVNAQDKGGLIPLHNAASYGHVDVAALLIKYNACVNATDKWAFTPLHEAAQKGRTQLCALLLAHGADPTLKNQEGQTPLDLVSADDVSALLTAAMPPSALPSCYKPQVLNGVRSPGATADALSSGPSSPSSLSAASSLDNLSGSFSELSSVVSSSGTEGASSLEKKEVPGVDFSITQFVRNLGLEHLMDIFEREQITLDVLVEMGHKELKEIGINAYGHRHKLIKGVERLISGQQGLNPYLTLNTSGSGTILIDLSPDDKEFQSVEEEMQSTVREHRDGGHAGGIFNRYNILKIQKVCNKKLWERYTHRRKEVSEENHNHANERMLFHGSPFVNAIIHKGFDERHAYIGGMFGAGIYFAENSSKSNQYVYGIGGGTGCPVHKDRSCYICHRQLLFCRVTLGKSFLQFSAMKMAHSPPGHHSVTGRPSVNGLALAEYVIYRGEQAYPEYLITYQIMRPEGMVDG

[4] = target: T2, Poly [ADP-ribose] polymerase tankyrase-1 (Homo sapiens, UniProt O95271); assay: Inhibition of human tankyrase1 after 30 mins by spectrophotometry
T2 sequence (O95271 whole entry): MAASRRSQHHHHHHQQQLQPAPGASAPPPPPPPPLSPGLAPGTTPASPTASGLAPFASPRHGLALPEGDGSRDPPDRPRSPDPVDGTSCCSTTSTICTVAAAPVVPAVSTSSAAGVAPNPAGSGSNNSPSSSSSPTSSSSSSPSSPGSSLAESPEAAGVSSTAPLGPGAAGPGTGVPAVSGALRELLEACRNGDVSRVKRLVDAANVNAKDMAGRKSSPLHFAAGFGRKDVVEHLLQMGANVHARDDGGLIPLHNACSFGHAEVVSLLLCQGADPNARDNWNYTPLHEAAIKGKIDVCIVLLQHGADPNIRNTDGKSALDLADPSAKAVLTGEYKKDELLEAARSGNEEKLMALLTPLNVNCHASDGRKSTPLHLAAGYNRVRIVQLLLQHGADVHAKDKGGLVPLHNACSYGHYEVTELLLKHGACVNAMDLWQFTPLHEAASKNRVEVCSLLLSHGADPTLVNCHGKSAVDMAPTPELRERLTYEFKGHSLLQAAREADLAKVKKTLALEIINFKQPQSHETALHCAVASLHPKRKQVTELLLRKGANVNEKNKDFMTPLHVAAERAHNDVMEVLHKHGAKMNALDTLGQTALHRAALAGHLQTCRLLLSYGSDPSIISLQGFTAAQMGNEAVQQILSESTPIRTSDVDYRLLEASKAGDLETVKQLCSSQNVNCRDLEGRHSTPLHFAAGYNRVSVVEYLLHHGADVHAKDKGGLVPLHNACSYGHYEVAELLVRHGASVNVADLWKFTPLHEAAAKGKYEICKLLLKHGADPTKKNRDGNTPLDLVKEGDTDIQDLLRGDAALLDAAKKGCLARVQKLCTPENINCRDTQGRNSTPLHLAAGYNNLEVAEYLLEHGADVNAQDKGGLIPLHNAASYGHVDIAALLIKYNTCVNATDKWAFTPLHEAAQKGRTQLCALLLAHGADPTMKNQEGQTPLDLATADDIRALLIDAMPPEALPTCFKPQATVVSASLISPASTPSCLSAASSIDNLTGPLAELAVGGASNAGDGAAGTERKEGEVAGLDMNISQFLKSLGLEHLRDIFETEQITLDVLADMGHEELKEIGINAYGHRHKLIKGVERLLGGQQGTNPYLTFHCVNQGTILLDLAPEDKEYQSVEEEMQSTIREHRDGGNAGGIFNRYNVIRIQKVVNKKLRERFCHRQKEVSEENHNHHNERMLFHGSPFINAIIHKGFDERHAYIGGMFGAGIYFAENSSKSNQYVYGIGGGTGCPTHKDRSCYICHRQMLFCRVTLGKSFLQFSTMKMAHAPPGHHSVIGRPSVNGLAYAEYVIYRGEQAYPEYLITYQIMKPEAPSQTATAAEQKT

[5] = organism: Homo sapiens; assay: Selectivity ratio of IC50 for PARP1 (unknown origin) to IC50 for human tankyrase2
[6] = organism: Homo sapiens; assay: Selectivity ratio of IC50 for PARP1 (unknown origin) to IC50 for human tankyrase1
[7] = target: T3, Poly [ADP-ribose] polymerase tankyrase-2 (Homo sapiens) (UniProt Q9H2K2); assay: Inhibition of human tankyrase2 at 10 nM after 2 hrs by spectrophotometry
T3 sequence (whole entry): T1 sequence (Q9H2K2 whole entry)

Poly [ADP-ribose] polymerase 1, sequence (P09874 whole entry): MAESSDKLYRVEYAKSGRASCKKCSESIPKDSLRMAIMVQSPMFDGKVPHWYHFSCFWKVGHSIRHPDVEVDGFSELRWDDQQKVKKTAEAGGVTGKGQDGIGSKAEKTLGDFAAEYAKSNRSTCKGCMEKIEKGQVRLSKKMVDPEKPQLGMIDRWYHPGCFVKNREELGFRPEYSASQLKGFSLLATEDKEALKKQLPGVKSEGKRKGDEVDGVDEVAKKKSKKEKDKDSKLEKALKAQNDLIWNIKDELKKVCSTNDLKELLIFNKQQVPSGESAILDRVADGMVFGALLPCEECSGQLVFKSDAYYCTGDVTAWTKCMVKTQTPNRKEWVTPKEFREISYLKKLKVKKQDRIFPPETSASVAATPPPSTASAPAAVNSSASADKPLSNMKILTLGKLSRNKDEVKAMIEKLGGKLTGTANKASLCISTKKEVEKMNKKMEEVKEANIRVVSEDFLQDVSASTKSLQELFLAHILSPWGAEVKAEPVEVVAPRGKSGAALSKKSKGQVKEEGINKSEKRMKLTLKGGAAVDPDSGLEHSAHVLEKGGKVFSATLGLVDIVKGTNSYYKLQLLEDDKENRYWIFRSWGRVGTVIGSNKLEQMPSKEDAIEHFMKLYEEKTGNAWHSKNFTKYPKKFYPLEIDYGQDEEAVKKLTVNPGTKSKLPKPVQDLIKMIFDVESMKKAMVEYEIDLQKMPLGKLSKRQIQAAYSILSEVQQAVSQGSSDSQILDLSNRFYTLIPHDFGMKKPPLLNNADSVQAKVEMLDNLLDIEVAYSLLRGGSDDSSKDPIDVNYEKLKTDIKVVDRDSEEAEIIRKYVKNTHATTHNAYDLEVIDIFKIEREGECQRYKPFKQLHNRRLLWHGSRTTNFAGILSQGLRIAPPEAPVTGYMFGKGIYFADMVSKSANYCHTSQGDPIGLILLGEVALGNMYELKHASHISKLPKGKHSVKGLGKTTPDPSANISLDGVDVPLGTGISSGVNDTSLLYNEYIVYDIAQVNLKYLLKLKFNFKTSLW

IC50 [1]	IC50 [2]	IC50 [3]	IC50 [4]	Ratio IC50 [5]	Ratio IC50 [6]	inhibition [7]	SMILES
> 10000 nM	685 nM	6.7 nM	35 nM	–	–	–	Cc1ccc(-c2nc3c(C)cccc3c(=O)[nH]2)cc1
> 10000 nM	891 nM	12 nM	37 nM	–	–	–	COc1ccc(-c2nc3c(C)cccc3c(=O)[nH]2)cc1
> 10000 nM	504 nM	3.3 nM	35 nM	170	14	–	Cc1cccc2c(O)nc(-c3ccc(N)cc3)nc12
> 10000 nM	> 5000 nM	10 nM	48 nM	> 500	> 100	–	Cc1cccc2c(O)nc(-c3ccc(C(F)(F)F)cc3)nc12
> 10000 nM	> 5000 nM	44 nM	73 nM	> 110	> 70	–	Cc1cccc2c(=O)[nH]c(-c3ccc(CNC(=O)OCc4ccccc4)cc3)nc12
–	–	–	–	–	–	2%	O=c1[nH]c(-c2ccc([N+](=O)[O-])cc2)nc2ccccc12
> 10000 nM	795 nM	41 nM	42 nM	–	–	–	Cc1cccc2c(=O)[nH]c(-c3ccccc3)nc12
–	–	–	–	240	23	–	Cc1cccc2c(O)nc(-c3ccc(O)cc3)nc12
> 10000 nM	–	30 nM	32 nM	–	–	–	Cc1cccc2c(O)nc(-c3ccc([N+](=O)[O-])cc3)nc12
–	–	–	–	–	–	32%	O=c1[nH]c(-c2ccc(Cl)cc2)nc2c(O)cccc12
> 10000 nM	> 5000 nM	33 nM	36 nM	–	–	49%	Cc1cccc2c(=O)[nH]c(-c3ccc(Cl)cc3)nc12
> 10000 nM	> 5000 nM	40 nM	44 nM	–	–	–	Cc1cccc2c(=O)[nH]c(-c3ccc(F)cc3)nc12
> 10000 nM	–	–	–	–	–	–	Oc1nc(-c2ccc(C(F)(F)F)cc2)nc2c1CSCC2
> 10000 nM	> 5000 nM	5.5 nM	32 nM	> 830	> 150	–	Cc1cccc2c(=O)[nH]c(-c3ccc(Br)cc3)nc12
> 10000 nM	1200 nM	3 nM	52 nM	–	–	–	Cc1cccc2c(=O)[nH]c(-c3ccc(O)cc3)nc12
–	–	–	–	–	–	25%	COc1cccc2c(=O)[nH]c(-c3ccc(Cl)cc3)nc12
